{"source": "paper PMC7407272", "about": "“Induction of Lysosome Membrane Permeabilization as a Therapeutic Strategy to Target Pancreatic Cancer Stem Cells” (Cancers, 2020)", "experiment_in_all_cases": "KINOMEscan", "assay_type_in_all_cases": "binding", "settings_in_all_cases": "read-out: % Ctrl", "key": {"MAPKAPK5": {"biological_target": "T1, MAPKAPK5 (Homo sapiens, UniProt Q8IW41)", "T1 construct": "purchased DiscoveRx KINOMEscan"}, "DDR1": {"biological_target": "T2, DDR1 (Homo sapiens, UniProt Q08345)", "T2 construct": "purchased DiscoveRx KINOMEscan", "T2 sequence (Q08345 19-913)": "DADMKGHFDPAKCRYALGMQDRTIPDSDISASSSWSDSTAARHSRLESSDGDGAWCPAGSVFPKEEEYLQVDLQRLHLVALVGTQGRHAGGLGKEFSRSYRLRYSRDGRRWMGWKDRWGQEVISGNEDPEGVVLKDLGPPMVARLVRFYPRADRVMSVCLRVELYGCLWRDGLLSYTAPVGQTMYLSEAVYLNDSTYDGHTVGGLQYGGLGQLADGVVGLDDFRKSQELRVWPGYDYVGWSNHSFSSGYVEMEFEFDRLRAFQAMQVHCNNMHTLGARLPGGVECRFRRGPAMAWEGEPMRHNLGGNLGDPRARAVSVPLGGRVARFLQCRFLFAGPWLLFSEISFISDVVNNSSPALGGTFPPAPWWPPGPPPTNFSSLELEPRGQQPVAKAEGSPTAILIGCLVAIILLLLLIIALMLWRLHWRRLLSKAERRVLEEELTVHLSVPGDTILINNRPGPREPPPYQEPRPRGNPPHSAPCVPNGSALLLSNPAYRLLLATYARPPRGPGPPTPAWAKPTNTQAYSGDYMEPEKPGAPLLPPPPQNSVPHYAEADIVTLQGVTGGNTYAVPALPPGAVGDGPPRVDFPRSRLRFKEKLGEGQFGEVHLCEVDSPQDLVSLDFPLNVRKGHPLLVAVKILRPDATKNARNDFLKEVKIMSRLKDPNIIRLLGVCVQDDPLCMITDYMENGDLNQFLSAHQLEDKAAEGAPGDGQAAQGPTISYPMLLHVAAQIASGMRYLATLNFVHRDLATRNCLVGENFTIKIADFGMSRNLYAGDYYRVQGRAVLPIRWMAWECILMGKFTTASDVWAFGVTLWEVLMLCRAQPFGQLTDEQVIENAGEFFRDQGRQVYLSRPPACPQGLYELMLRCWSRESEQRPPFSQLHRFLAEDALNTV"}, "GRK7": {"biological_target": "T3, GRK7 (Homo sapiens, UniProt Q8WTQ7)", "T3 construct": "purchased DiscoveRx KINOMEscan"}, "MAP4K2": {"biological_target": "T4, MAP4K2 (Homo sapiens, UniProt Q12851)", "T4 construct": "purchased DiscoveRx KINOMEscan"}, "FGFR2": {"biological_target": "T5, FGFR2 (Homo sapiens, UniProt P21802)", "T5 construct": "purchased DiscoveRx KINOMEscan", "T5 sequence (P21802 22-821)": "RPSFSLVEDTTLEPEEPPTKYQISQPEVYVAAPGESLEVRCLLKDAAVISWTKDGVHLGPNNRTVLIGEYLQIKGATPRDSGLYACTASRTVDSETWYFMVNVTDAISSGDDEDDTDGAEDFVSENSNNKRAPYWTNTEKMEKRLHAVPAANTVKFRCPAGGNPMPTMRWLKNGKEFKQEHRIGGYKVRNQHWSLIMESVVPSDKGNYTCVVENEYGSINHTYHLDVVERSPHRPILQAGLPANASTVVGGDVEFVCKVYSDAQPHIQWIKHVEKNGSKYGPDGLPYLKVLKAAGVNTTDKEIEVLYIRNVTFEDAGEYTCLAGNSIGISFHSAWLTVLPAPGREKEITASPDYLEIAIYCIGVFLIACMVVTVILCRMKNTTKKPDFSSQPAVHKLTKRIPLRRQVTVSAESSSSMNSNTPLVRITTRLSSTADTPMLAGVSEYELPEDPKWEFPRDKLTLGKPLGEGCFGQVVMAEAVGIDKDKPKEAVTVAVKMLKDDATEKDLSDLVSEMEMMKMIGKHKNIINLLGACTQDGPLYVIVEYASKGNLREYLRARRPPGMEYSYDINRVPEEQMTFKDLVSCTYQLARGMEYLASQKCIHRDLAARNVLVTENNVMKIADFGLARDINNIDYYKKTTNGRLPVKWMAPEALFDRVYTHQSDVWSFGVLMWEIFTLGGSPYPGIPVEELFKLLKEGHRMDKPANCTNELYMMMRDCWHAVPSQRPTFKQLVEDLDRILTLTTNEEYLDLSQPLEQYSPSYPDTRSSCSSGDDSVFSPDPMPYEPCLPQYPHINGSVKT"}, "SGK3": {"biological_target": "T6, SGK3 (Homo sapiens, UniProt Q96BR1)", "T6 construct": "purchased DiscoveRx KINOMEscan"}, "TLK2": {"biological_target": "T7, TLK2 (Homo sapiens, UniProt Q86UE8)", "T7 construct": "purchased DiscoveRx KINOMEscan"}, "WNK4": {"biological_target": "T8, WNK4 (Homo sapiens, UniProt Q96J92)", "T8 construct": "purchased DiscoveRx KINOMEscan"}, "ULK1": {"biological_target": "T9, ULK1 (Homo sapiens, UniProt O75385)", "T9 construct": "purchased DiscoveRx KINOMEscan"}, "MEK1": {"biological_target": "T10, MEK1 (Homo sapiens, UniProt Q02750)", "T10 construct": "purchased DiscoveRx KINOMEscan"}, "NDR1": {"biological_target": "T11, NDR1 (Homo sapiens, UniProt Q15208)", "T11 construct": "purchased DiscoveRx KINOMEscan"}, "NIM1": {"biological_target": "T12, NIM1 (Homo sapiens, UniProt Q8IY84)", "T12 construct": "purchased DiscoveRx KINOMEscan"}, "FLT3(D835H)": {"biological_target": "T13, FLT3(D835H) (Homo sapiens, UniProt P36888, D835H)", "T13 construct": "purchased DiscoveRx KINOMEscan"}, "MST4": {"biological_target": "T14, MST4 (Homo sapiens, UniProt Q9P289)", "T14 construct": "purchased DiscoveRx KINOMEscan"}, "NLK": {"biological_target": "T15, NLK (Homo sapiens, UniProt Q9UBE8)", "T15 construct": "purchased DiscoveRx KINOMEscan"}, "AMPK-alpha1": {"biological_target": "T16, AMPK-alpha1 (Homo sapiens, UniProt Q13131)", "T16 construct": "purchased DiscoveRx KINOMEscan"}, "RET(M918T)": {"biological_target": "T17, RET(M918T) (Homo sapiens, UniProt P07949, M918T)", "T17 construct": "purchased DiscoveRx KINOMEscan", "T17 sequence (P07949 29-1114 M918T)": "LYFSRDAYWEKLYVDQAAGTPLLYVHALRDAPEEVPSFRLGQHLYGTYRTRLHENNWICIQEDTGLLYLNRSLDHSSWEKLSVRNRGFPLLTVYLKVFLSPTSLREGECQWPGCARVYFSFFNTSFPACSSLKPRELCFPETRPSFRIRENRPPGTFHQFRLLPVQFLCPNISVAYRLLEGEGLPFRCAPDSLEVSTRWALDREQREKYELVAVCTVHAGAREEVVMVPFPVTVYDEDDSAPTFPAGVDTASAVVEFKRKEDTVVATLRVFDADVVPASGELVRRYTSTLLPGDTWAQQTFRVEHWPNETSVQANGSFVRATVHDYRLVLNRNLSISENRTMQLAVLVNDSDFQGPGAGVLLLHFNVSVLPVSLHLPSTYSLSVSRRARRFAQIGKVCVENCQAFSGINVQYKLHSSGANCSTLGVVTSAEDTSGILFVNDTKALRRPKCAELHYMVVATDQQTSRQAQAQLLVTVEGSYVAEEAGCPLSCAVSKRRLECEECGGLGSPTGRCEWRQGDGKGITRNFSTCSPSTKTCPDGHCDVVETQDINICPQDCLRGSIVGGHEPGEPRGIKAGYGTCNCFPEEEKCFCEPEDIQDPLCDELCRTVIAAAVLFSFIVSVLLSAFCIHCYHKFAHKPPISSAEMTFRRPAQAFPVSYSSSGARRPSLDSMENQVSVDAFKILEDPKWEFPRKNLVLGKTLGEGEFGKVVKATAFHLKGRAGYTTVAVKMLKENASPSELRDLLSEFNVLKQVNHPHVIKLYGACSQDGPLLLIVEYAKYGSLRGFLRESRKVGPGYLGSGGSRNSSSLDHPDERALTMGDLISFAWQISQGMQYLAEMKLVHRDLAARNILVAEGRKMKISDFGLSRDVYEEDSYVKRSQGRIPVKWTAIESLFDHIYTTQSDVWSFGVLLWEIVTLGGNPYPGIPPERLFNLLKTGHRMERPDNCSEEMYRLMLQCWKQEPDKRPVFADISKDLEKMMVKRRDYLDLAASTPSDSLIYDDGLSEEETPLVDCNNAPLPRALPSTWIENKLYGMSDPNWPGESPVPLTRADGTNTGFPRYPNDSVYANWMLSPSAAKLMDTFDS"}, "FYN": {"biological_target": "T18, FYN (Homo sapiens, UniProt P06241)", "T18 construct": "purchased DiscoveRx KINOMEscan"}, "ERK5": {"biological_target": "T19, ERK5 (Homo sapiens, UniProt Q13164)", "T19 construct": "purchased DiscoveRx KINOMEscan"}, "PIK3CA(C420R)": {"biological_target": "T20, PIK3CA(C420R) (Homo sapiens, UniProt P42336, C420R)", "T20 construct": "purchased DiscoveRx KINOMEscan"}, "CSNK2A1": {"biological_target": "T21, CSNK2A1 (Homo sapiens, UniProt P68400)", "T21 construct": "purchased DiscoveRx KINOMEscan"}, "RET(V804L)": {"biological_target": "T22, RET(V804L) (Homo sapiens, UniProt P07949, V804L)", "T22 construct": "purchased DiscoveRx KINOMEscan", "T22 sequence (P07949 29-1114 V804L)": "as the sequence (P07949 29-1114 M918T) above, with V776L, T890M counted along it"}, "CAMK2D": {"biological_target": "T23, CAMK2D (Homo sapiens, UniProt Q13557)", "T23 construct": "purchased DiscoveRx KINOMEscan"}, "GSK3A": {"biological_target": "T24, GSK3A (Homo sapiens, UniProt P49840)", "T24 construct": "purchased DiscoveRx KINOMEscan"}, "SRC": {"biological_target": "T25, SRC (Homo sapiens, UniProt P12931)", "T25 construct": "purchased DiscoveRx KINOMEscan"}, "PIP5K2C": {"biological_target": "T26, PIP5K2C (Homo sapiens, UniProt Q8TBX8)", "T26 construct": "purchased DiscoveRx KINOMEscan"}, "MYLK2": {"biological_target": "T27, MYLK2 (Homo sapiens, UniProt Q9H1R3)", "T27 construct": "purchased DiscoveRx KINOMEscan"}, "MINK": {"biological_target": "T28, MINK (Homo sapiens, UniProt Q8N4C8)", "T28 construct": "purchased DiscoveRx KINOMEscan"}, "RSK1(KD1-N-t.)": {"biological_target": "T29, RSK1(KD1-N-t.) (Homo sapiens, UniProt Q15418)", "T29 construct": "RSK1(KD1-N-t.); purchased DiscoveRx KINOMEscan", "T29 sequence (Q15418 1-391 limits assumed)": "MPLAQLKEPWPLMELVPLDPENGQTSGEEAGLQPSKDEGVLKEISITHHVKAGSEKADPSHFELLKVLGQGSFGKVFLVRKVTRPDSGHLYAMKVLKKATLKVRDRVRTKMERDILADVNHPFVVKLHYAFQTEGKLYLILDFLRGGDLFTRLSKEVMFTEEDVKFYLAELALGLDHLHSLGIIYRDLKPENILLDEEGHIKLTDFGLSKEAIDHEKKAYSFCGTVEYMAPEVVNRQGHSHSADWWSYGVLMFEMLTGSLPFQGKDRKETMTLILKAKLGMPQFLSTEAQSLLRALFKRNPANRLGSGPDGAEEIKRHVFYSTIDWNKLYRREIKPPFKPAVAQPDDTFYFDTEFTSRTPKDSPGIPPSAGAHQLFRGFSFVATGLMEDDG"}, "MUSK": {"biological_target": "T30, MUSK (Homo sapiens, UniProt O15146)", "T30 construct": "purchased DiscoveRx KINOMEscan"}, "RSK2(KD2-C-t.)": {"biological_target": "T31, RSK2(KD2-C-t.) (Homo sapiens, UniProt P51812)", "T31 construct": "RSK2(KD2-C-t.); purchased DiscoveRx KINOMEscan", "T31 sequence (P51812 398-740 limits assumed)": "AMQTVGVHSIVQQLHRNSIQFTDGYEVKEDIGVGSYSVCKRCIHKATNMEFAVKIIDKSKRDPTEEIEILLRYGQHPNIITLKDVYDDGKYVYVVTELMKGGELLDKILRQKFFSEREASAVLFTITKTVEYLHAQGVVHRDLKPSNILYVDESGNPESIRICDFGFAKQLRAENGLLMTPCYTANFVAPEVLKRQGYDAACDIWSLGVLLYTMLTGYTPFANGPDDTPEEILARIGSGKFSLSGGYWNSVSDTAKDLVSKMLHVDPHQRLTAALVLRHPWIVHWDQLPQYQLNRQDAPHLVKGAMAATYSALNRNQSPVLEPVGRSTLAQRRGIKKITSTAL"}, "CSNK1G2": {"biological_target": "T32, CSNK1G2 (Homo sapiens, UniProt P78368)", "T32 construct": "purchased DiscoveRx KINOMEscan"}, "IGF1R": {"biological_target": "T33, IGF1R (Homo sapiens, UniProt P08069)", "T33 construct": "purchased DiscoveRx KINOMEscan", "T33 sequence (P08069 31-1367)": "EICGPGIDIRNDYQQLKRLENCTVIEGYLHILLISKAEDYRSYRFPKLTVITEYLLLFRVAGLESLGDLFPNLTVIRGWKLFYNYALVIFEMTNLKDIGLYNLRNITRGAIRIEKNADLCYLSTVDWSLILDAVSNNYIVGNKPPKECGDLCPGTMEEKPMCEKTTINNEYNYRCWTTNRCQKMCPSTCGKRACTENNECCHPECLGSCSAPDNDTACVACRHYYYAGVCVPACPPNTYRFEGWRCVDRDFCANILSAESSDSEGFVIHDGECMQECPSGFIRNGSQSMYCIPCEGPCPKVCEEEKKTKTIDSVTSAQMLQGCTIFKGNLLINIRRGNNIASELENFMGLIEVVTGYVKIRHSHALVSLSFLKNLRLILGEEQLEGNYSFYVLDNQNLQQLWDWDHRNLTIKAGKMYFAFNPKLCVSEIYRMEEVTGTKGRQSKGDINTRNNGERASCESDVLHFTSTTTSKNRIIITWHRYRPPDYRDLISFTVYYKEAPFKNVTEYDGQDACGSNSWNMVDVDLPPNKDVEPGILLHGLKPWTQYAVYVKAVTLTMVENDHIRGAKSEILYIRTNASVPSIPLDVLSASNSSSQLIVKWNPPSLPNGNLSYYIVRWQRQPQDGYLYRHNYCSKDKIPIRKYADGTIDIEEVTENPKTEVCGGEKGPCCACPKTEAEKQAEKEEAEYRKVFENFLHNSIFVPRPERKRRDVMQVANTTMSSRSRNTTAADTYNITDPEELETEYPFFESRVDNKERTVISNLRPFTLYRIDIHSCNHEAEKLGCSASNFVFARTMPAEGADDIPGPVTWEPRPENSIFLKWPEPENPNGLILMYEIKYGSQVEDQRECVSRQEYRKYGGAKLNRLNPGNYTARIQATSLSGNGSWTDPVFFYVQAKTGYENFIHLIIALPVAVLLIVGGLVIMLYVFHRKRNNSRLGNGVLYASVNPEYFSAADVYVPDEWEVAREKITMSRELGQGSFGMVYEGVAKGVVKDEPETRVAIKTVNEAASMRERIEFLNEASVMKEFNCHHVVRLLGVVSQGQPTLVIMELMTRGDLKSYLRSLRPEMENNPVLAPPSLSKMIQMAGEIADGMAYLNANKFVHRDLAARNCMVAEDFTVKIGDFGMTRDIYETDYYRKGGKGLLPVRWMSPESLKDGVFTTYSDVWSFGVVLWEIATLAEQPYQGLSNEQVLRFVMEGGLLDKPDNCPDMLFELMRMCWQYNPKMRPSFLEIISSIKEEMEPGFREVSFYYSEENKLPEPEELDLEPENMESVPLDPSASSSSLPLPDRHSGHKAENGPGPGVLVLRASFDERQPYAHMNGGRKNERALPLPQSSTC"}, "IRAK1": {"biological_target": "T34, IRAK1 (Homo sapiens, UniProt P51617)", "T34 construct": "purchased DiscoveRx KINOMEscan"}, "SRMS": {"biological_target": "T35, SRMS (Homo sapiens, UniProt Q9H3Y6)", "T35 construct": "purchased DiscoveRx KINOMEscan"}}, "data": [{"smiles": "CN1CCC(CNc2ccc3ncc(C(=O)Nc4cccc(OC(F)(F)F)c4)n3n2)CC1", "note": "[Cpd 2]", "values": [{"measurement": "remaining binding at 1 µM", "setting": "MAPKAPK5", "value": 100, "unit": "%"}, {"measurement": "remaining binding at 1 µM", "setting": "DDR1", "value": 92, "unit": "%"}, {"measurement": "remaining binding at 1 µM", "setting": "GRK7", "value": 41, "unit": "%"}, {"measurement": "remaining binding at 1 µM", "setting": "MAP4K2", "value": 74, "unit": "%"}, {"measurement": "remaining binding at 1 µM", "setting": "FGFR2", "value": 100, "unit": "%"}, {"measurement": "remaining binding at 1 µM", "setting": "SGK3", "value": 100, "unit": "%"}, {"measurement": "remaining binding at 1 µM", "setting": "TLK2", "value": 100, "unit": "%"}, {"measurement": "remaining binding at 1 µM", "setting": "WNK4", "value": 100, "unit": "%"}, {"measurement": "remaining binding at 1 µM", "setting": "ULK1", "value": 98, "unit": "%"}, {"measurement": "remaining binding at 1 µM", "setting": "MEK1", "value": 95, "unit": "%"}, {"measurement": "remaining binding at 1 µM", "setting": "NDR1", "value": 89, "unit": "%"}, {"measurement": "remaining binding at 1 µM", "setting": "NIM1", "value": 78, "unit": "%"}, {"measurement": "remaining binding at 1 µM", "setting": "FLT3(D835H)", "value": 74, "unit": "%"}, {"measurement": "remaining binding at 1 µM", "setting": "MST4", "value": 100, "unit": "%"}, {"measurement": "remaining binding at 1 µM", "setting": "NLK", "value": 97, "unit": "%"}, {"measurement": "remaining binding at 1 µM", "setting": "AMPK-alpha1", "value": 100, "unit": "%"}, {"measurement": "remaining binding at 1 µM", "setting": "RET(M918T)", "value": 100, "unit": "%"}, {"measurement": "remaining binding at 1 µM", "setting": "FYN", "value": 96, "unit": "%"}, {"measurement": "remaining binding at 1 µM", "setting": "ERK5", "value": 100, "unit": "%"}, {"measurement": "remaining binding at 1 µM", "setting": "PIK3CA(C420R)", "value": 100, "unit": "%"}, {"measurement": "remaining binding at 1 µM", "setting": "CSNK2A1", "value": 98, "unit": "%"}, {"measurement": "remaining binding at 1 µM", "setting": "RET(V804L)", "value": 100, "unit": "%"}, {"measurement": "remaining binding at 1 µM", "setting": "CAMK2D", "value": 99, "unit": "%"}, {"measurement": "remaining binding at 1 µM", "setting": "GSK3A", "value": 100, "unit": "%"}, {"measurement": "remaining binding at 1 µM", "setting": "SRC", "value": 99, "unit": "%"}, {"measurement": "remaining binding at 1 µM", "setting": "PIP5K2C", "value": 58, "unit": "%"}, {"measurement": "remaining binding at 1 µM", "setting": "MYLK2", "value": 97, "unit": "%"}, {"measurement": "remaining binding at 1 µM", "setting": "MINK", "value": 94, "unit": "%"}, {"measurement": "remaining binding at 1 µM", "setting": "RSK1(KD1-N-t.)", "value": 97, "unit": "%"}, {"measurement": "remaining binding at 1 µM", "setting": "MUSK", "value": 99, "unit": "%"}, {"measurement": "remaining binding at 1 µM", "setting": "RSK2(KD2-C-t.)", "value": 100, "unit": "%"}, {"measurement": "remaining binding at 1 µM", "setting": "CSNK1G2", "value": 100, "unit": "%"}, {"measurement": "remaining binding at 1 µM", "setting": "IGF1R", "value": 100, "unit": "%"}, {"measurement": "remaining binding at 1 µM", "setting": "IRAK1", "value": 100, "unit": "%"}, {"measurement": "remaining binding at 1 µM", "setting": "SRMS", "value": 87, "unit": "%"}]}]}
